From patent US7557107B2, “Farnesyl protein transferase inhibitors as antitumor agents” (Schering Coporation, priority 2003, dated 2009)
Values joined by “and” are separate entries in the source; they are usually repeats but may differ in a detail not shown here. Identical values can stand only once.

What was measured:
[1] = target: purified human farnesyl protein transferase (Homo sapiens, UniProt P49354+P49356); test: FPT activity: transfer of [3H] farnesyl from [3H] farnesyl pyrophosphate to biotinylated H-ras peptide (SPA); type: biochemical; details: 0.03 nM enzyme, 37° C., 60 minutes
Method: FPT activity was determined by measuring the transfer of [^3H] farnesyl from [^3H] farnesyl pyrophosphate to a biotinylated peptide derived from the C-terminus of H-ras (biotin-CVLS). The reaction mixture contains: 50 mM Tris pH7.7, 5 mM MgCl2, 5 μM Zn^++, 5 mM DTT, 0.1% Triton-X, 0.05 μM peptide, 0.03 nM purified human farnesyl protein transferase, 0.180 μM [^3H] farnesyl pyrophosphate, plus the indicated concentration of tricyclic compound or vehicle control in a total volume of 100 μl. The reaction was incubated in a yortemp shaking incubator at 37° C., 45 RPM for 60 minutes and stopped with 150 μl of 0.25 M EDTA containing 0.5% BSA and 1.3 mg/ml Streptavidin SPA beads. Radioactivity was measured in a Wallach 1450 Microbeta liquid scintillation counter. Percent inhibition was calculated relative to the vehicle control.

[2] = test system: Human tumor cells; test: Soft Agar Assay (anchorage-independent growth); type: cell-based; details: colony outgrowth 10-16 days, MTT stain
Method: Anchorage-independent growth is a characteristic of tumorigenic cell lines. Human tumor cells can be suspended in growth medium containing 0.3% agarose and an indicated concentration of a famesyl transferase inhibitor. The solution can be overlayed onto growth medium solidified with 0.6% agarose containing the same concentration of farnesyl transferase inhibitor as the top layer. After the top layer is solidified, plates can be incubated for 10-16 days at 37° C. under 5% CO2 to allow colony outgrowth. After incubation, the colonies can be stained by overlaying the agar with a solution of MTT (3-[4,5-dimethyl-thiazol-2-yl]-2,5-diphenyltetrazolium bromide, Thiazolyl blue) (1 mg/mL in PBS). Colonies can be counted and the IC50's can be determined.

| IC50 [1] | IC50 [2] | SMILES |
| --- | --- | --- |
| 0.5 to 5 nM and 1.5 nM | < 0.5 nM | Cn1cncc1[C@H](NC(=O)OC1(C)CC1)C1=Cc2cccnc2[C@@H](N2CCN(C(=O)OC3(C)CC3)CC2)c2ccc(Cl)cc21 [Compound 108.1] |
| 0.5 to 5 nM | – | Cn1cncc1[C@H](NC(=O)OC1(C2CC2)CC1)C1=Cc2cccnc2[C@@H](N2CCN(C(=O)OC3CCCC3)CC2)c2ccc(Cl)cc21 [Compound 112.1, 4-{6-[(Bicyclopropyl-1-yloxycarbonylamino)-(3-methyl-3H-imidazol-4-yl)-methyl]-8-chloro-11H-benzo[5,6]cyclohepta[1,2-b]pyridin-11-yl}-piperazine-1-carboxylic acid cyclopentyl ester] |
| 0.5 to 5 nM | – | CC(C)C1(OC(=O)N2CCN([C@H]3c4ccc(Cl)cc4C([C@@H](NC(=O)OC4(C)CC4)c4cncn4C)=Cc4cccnc43)CC2)CC1 [Compound 118.1] |
| 0.5 to 5 nM | – | COC1(C(=O)N[C@H](C2=Cc3cccnc3[C@@H](N3CCN(C(=O)OCC(C)(C)C)CC3)c3ccc(Cl)cc32)c2cncn2C)CC1 [Compound 119.1] |
| 0.5 to 5 nM | – | COC1(C(=O)N[C@H](C2=Cc3cccnc3[C@@H](N3CCN(C(=O)OCC4(C)CC4)CC3)c3ccc(Cl)cc32)c2cncn2C)CC1 [Compound 120.1] |
| 0.5 to 5 nM and 0.6 nM | 0.6 nM | COCC(=O)N[C@H](C1=Cc2cccnc2[C@@H](N2CCN(C(=O)OC(C)C)CC2)c2ccc(Cl)cc21)c1cncn1C [Compound 136.1] |
| 0.5 to 5 nM | – | COC1(C(=O)N[C@H](C2=Cc3cccnc3[C@@H](N3CCN(C(=O)OC(C)C)CC3)c3ccc(Cl)cc32)c2cncn2C)CC1 [Compound 152.1, 4-{8-Chloro-6-[[(1-methoxy-cyclopropanecarbonyl)-amino]-(3-methyl-3H-imidazol-4-yl)-methyl]-11H-benzo[5.6]cyclohepta[1,2-b]pyridin-11-yl}-piperazine-1-carboxylic acid isopropyl ester] |
